{
  "source": "the supplement of paper PMC10307832",
  "experiment_in_all_cases": "relative viability (nuclei count vs DMSO), 5 days (fraction); higher = more cells survive",
  "key": {"ABC-1": {"tested_on": "ABC-1", "procedure,_shortened": "(§1)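 Lung cancer cell lines in 1536-well plates were dosed by pin tool the day after seeding, either with one drug alone or with a fixed anchor-drug dose plus five library-drug doses (not always all listed) in √10 steps. After 5 days, cells were fixed and their nuclei stained in one step (final 0.05% Triton X-100, 1% formaldehyde, 1 ug/ml Hoechst), then counted on 4× images. Relative viability is the nuclei count in treated wells divided by that in vehicle wells. Values are medians of duplicate plates.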"}, "CAL-12T": {"tested_on": "CAL-12T", "procedure,_shortened": "as §1"}, "EPLC-272H": {"tested_on": "EPLC-272H", "procedure,_shortened": "as §1"}, "HCC-366": {"tested_on": "HCC-366", "procedure,_shortened": "as §1"}, "HCC-78": {"tested_on": "HCC-78", "procedure,_shortened": "as §1"}, "LC-2-ad": {"tested_on": "LC-2-ad", "procedure,_shortened": "as §1"}, "LOU-NH91": {"tested_on": "LOU-NH91", "procedure,_shortened": "as §1"}, "LU99A": {"tested_on": "LU99A", "procedure,_shortened": "as §1"}, "NCI-H1395": {"tested_on": "NCI-H1395", "procedure,_shortened": "as §1"}, "NCI-H1651": {"tested_on": "NCI-H1651", "procedure,_shortened": "as §1"}, "NCI-H1734": {"tested_on": "NCI-H1734", "procedure,_shortened": "as §1"}, "NCI-H1755": {"tested_on": "NCI-H1755", "procedure,_shortened": "as §1"}, "NCI-H1793": {"tested_on": "NCI-H1793", "procedure,_shortened": "as §1"}, "NCI-H1944": {"tested_on": "NCI-H1944", "procedure,_shortened": "as §1"}, "NCI-H2087": {"tested_on": "NCI-H2087", "procedure,_shortened": "as §1"}, "NCI-H2228": {"tested_on": "NCI-H2228", "procedure,_shortened": "as §1"}, "NCI-H2405": {"tested_on": "NCI-H2405", "procedure,_shortened": "as §1"}, "NCI-H3122": {"tested_on": "NCI-H3122", "procedure,_shortened": "as §1"}, "NCI-H460": {"tested_on": "NCI-H460", "procedure,_shortened": "as §1"}, "PC-3 [JPC-3]": {"tested_on": "PC-3 [JPC-3]", "procedure,_shortened": "as §1"}, "RERF-LC-KJ": {"tested_on": "RERF-LC-KJ", "procedure,_shortened": "as §1"}, "UMC-11": {"tested_on": "UMC-11", "procedure,_shortened": "as §1"}},
  "data": [
    {"smiles": "C[C@@H]1CN(CC(=O)Nc2ccc3c(c2)Cc2cccc(-c4cc(=O)cc(N5CCOCC5)o4)c2S3)C[C@H](C)O1", "note": "+ C[C@]1(O)C[C@@H](c2nc(-c3ccc4ccc(-c5ccccc5)nc4c3)c3c(N)nccn32)C1 [Linsitinib] (partner 1 µM)", "values": [
      {"measurement": "relative viability", "setting": "ABC-1; first compound 0.1265 µM", "result": 0.781},
      {"measurement": "relative viability", "setting": "ABC-1; first compound 0.4 µM", "result": 0.769},
      {"measurement": "relative viability", "setting": "ABC-1; first compound 4 µM", "result": 0.673},
      {"measurement": "relative viability", "setting": "CAL-12T; first compound 0.04 µM", "result": 0.893},
      {"measurement": "relative viability", "setting": "CAL-12T; first compound 0.1265 µM", "result": 0.78},
      {"measurement": "relative viability", "setting": "CAL-12T; first compound 0.4 µM", "result": 0.648},
      {"measurement": "relative viability", "setting": "CAL-12T; first compound 4 µM", "result": 0.54},
      {"measurement": "relative viability", "setting": "EPLC-272H; first compound 0.04 µM", "result": 1.24},
      {"measurement": "relative viability", "setting": "EPLC-272H; first compound 0.1265 µM", "result": 1.12},
      {"measurement": "relative viability", "setting": "EPLC-272H; first compound 0.4 µM", "result": 1.17},
      {"measurement": "relative viability", "setting": "EPLC-272H; first compound 4 µM", "result": 1.36},
      {"measurement": "relative viability", "setting": "HCC-366; first compound 0.04 µM", "result": 0.752},
      {"measurement": "relative viability", "setting": "HCC-366; first compound 0.1265 µM", "result": 0.622},
      {"measurement": "relative viability", "setting": "HCC-366; first compound 0.4 µM", "result": 0.428},
      {"measurement": "relative viability", "setting": "HCC-366; first compound 4 µM", "result": 0.495},
      {"measurement": "relative viability", "setting": "HCC-78; first compound 0.04 µM", "result": 0.485},
      {"measurement": "relative viability", "setting": "HCC-78; first compound 0.1265 µM", "result": 0.461},
      {"measurement": "relative viability", "setting": "HCC-78; first compound 0.4 µM", "result": 0.344},
      {"measurement": "relative viability", "setting": "HCC-78; first compound 4 µM", "result": 0.461},
      {"measurement": "relative viability", "setting": "LC-2-ad; first compound 0.04 µM", "result": 0.798},
      {"measurement": "relative viability", "setting": "LC-2-ad; first compound 0.1265 µM", "result": 0.895},
      {"measurement": "relative viability", "setting": "LC-2-ad; first compound 0.4 µM", "result": 0.839},
      {"measurement": "relative viability", "setting": "LC-2-ad; first compound 4 µM", "result": 0.719},
      {"measurement": "relative viability", "setting": "LOU-NH91; first compound 0.04 µM", "result": 1.02},
      {"measurement": "relative viability", "setting": "LOU-NH91; first compound 0.1265 µM", "result": 0.956},
      {"measurement": "relative viability", "setting": "LOU-NH91; first compound 0.4 µM", "result": 0.906},
      {"measurement": "relative viability", "setting": "LOU-NH91; first compound 4 µM", "result": 0.93},
      {"measurement": "relative viability", "setting": "LU99A; first compound 0.04 µM", "result": 0.489},
      {"measurement": "relative viability", "setting": "LU99A; first compound 0.1265 µM", "result": 0.46},
      {"measurement": "relative viability", "setting": "LU99A; first compound 0.4 µM", "result": 0.572},
      {"measurement": "relative viability", "setting": "LU99A; first compound 4 µM", "result": 0.596},
      {"measurement": "relative viability", "setting": "NCI-H1395; first compound 0.04 µM", "result": 1.14},
      {"measurement": "relative viability", "setting": "NCI-H1395; first compound 0.1265 µM", "result": 1.16},
      {"measurement": "relative viability", "setting": "NCI-H1395; first compound 0.4 µM", "result": 0.992},
      {"measurement": "relative viability", "setting": "NCI-H1395; first compound 4 µM", "result": 0.953},
      {"measurement": "relative viability", "setting": "NCI-H1651; first compound 0.04 µM", "result": 1.01},
      {"measurement": "relative viability", "setting": "NCI-H1651; first compound 0.1265 µM", "result": 0.944},
      {"measurement": "relative viability", "setting": "NCI-H1651; first compound 0.4 µM", "result": 0.757},
      {"measurement": "relative viability", "setting": "NCI-H1651; first compound 4 µM", "result": 0.96},
      {"measurement": "relative viability", "setting": "NCI-H1734; first compound 0.04 µM", "result": 1.01},
      {"measurement": "relative viability", "setting": "NCI-H1734; first compound 0.1265 µM", "result": 0.85},
      {"measurement": "relative viability", "setting": "NCI-H1734; first compound 0.4 µM", "result": 0.801},
      {"measurement": "relative viability", "setting": "NCI-H1734; first compound 4 µM", "result": 0.92},
      {"measurement": "relative viability", "setting": "NCI-H1755; first compound 0.04 µM", "result": 1.01},
      {"measurement": "relative viability", "setting": "NCI-H1755; first compound 0.1265 µM", "result": 0.913},
      {"measurement": "relative viability", "setting": "NCI-H1755; first compound 0.4 µM", "result": 0.955},
      {"measurement": "relative viability", "setting": "NCI-H1755; first compound 4 µM", "result": 0.941},
      {"measurement": "relative viability", "setting": "NCI-H1793; first compound 0.04 µM", "result": 1.02},
      {"measurement": "relative viability", "setting": "NCI-H1793; first compound 0.1265 µM", "result": 0.695},
      {"measurement": "relative viability", "setting": "NCI-H1793; first compound 0.4 µM", "result": 0.779},
      {"measurement": "relative viability", "setting": "NCI-H1793; first compound 4 µM", "result": 0.445},
      {"measurement": "relative viability", "setting": "NCI-H1944; first compound 0.1265 µM", "result": 1.24},
      {"measurement": "relative viability", "setting": "NCI-H1944; first compound 0.4 µM", "result": 1.36},
      {"measurement": "relative viability", "setting": "NCI-H1944; first compound 4 µM", "result": 1.22},
      {"measurement": "relative viability", "setting": "NCI-H2087; first compound 0.04 µM", "result": 0.939},
      {"measurement": "relative viability", "setting": "NCI-H2087; first compound 0.1265 µM", "result": 1},
      {"measurement": "relative viability", "setting": "NCI-H2087; first compound 0.4 µM", "result": 0.91},
      {"measurement": "relative viability", "setting": "NCI-H2087; first compound 4 µM", "result": 0.772},
      {"measurement": "relative viability", "setting": "NCI-H2228; first compound 0.04 µM", "result": 0.685},
      {"measurement": "relative viability", "setting": "NCI-H2228; first compound 0.1265 µM", "result": 0.731},
      {"measurement": "relative viability", "setting": "NCI-H2228; first compound 0.4 µM", "result": 0.34},
      {"measurement": "relative viability", "setting": "NCI-H2228; first compound 4 µM", "result": 0.334},
      {"measurement": "relative viability", "setting": "NCI-H2405; first compound 0.04 µM", "result": 0.896},
      {"measurement": "relative viability", "setting": "NCI-H2405; first compound 0.1265 µM", "result": 1.04},
      {"measurement": "relative viability", "setting": "NCI-H2405; first compound 0.4 µM", "result": 0.832},
      {"measurement": "relative viability", "setting": "NCI-H2405; first compound 4 µM", "result": 0.881},
      {"measurement": "relative viability", "setting": "NCI-H3122; first compound 0.04 µM", "result": 1.07},
      {"measurement": "relative viability", "setting": "NCI-H3122; first compound 0.1265 µM", "result": 0.933},
      {"measurement": "relative viability", "setting": "NCI-H3122; first compound 0.4 µM", "result": 1.02},
      {"measurement": "relative viability", "setting": "NCI-H3122; first compound 4 µM", "result": 0.99},
      {"measurement": "relative viability", "setting": "NCI-H460; first compound 0.04 µM", "result": 0.858},
      {"measurement": "relative viability", "setting": "NCI-H460; first compound 0.1265 µM", "result": 0.726},
      {"measurement": "relative viability", "setting": "NCI-H460; first compound 0.4 µM", "result": 0.682},
      {"measurement": "relative viability", "setting": "NCI-H460; first compound 4 µM", "result": 0.371},
      {"measurement": "relative viability", "setting": "PC-3 [JPC-3]; first compound 0.04 µM", "result": 1.06},
      {"measurement": "relative viability", "setting": "PC-3 [JPC-3]; first compound 0.1265 µM", "result": 0.993},
      {"measurement": "relative viability", "setting": "PC-3 [JPC-3]; first compound 0.4 µM", "result": 0.952},
      {"measurement": "relative viability", "setting": "PC-3 [JPC-3]; first compound 4 µM", "result": 0.868},
      {"measurement": "relative viability", "setting": "RERF-LC-KJ; first compound 0.04 µM", "result": 0.922},
      {"measurement": "relative viability", "setting": "RERF-LC-KJ; first compound 0.1265 µM", "result": 0.907},
      {"measurement": "relative viability", "setting": "RERF-LC-KJ; first compound 0.4 µM", "result": 0.91},
      {"measurement": "relative viability", "setting": "RERF-LC-KJ; first compound 4 µM", "result": 0.774},
      {"measurement": "relative viability", "setting": "UMC-11; first compound 0.04 µM", "result": 0.997},
      {"measurement": "relative viability", "setting": "UMC-11; first compound 0.1265 µM", "result": 0.993},
      {"measurement": "relative viability", "setting": "UMC-11; first compound 0.4 µM", "result": 1.05},
      {"measurement": "relative viability", "setting": "UMC-11; first compound 4 µM", "result": 0.857}
    ]}
  ]
}
